Data taken from ChEMBL document CHEMBL5608163, “Structure modification of anoplin for fighting resistant bacteria” (Eur J Med Chem, 2024).
Converted amounts (≈) assume the structure as drawn. Square brackets hold non-standard residues; d marks the D form. Peptide text beside a SMILES is read from it. 2Nal = N[C@@H](Cc1ccc2ccccc2c1)C(=O)O; hIle = CC[C@H](C)C[C@H](N)C(=O)O; Cha = N[C@@H](CC1CCCCC1)C(=O)O

Experiments:
[1] = Hemolytic activity in human RBC assessed as hemolysis measured after 24 hrs; type: toxicity, cell-based, Erythrocyte; conditions: red blood cells
[2] = test system: Escherichia coli; assay: Antibacterial activity against Escherichia coli ATCC 25922 assessed as reduction in microbial growth incubated for 16 to 20 hrs by CLSI protocol based Muller Hinton broth assay; type: functional; conditions: time 16-20 hrs
[3] = test system: Pseudomonas aeruginosa; assay: Antibacterial activity against Pseudomonas aeruginosa ATCC 27853 assessed as reduction in microbial growth incubated for 16 to 20 hrs by CLSI protocol based Muller Hinton broth assay; type: functional; conditions: time 16-20 hrs
[4] = test system: Enterococcus faecium; assay: Antibacterial activity against vancomycin resistant Enterococcus faecium ATCC 700221 assessed as inhibition of bacterial growth incubated for 48 hrs by CLSI-based broth microdilution assay; type: functional
[5] = test system: Staphylococcus aureus; assay: Antibacterial activity against methicillin-resistant Staphylococcus aureus ATCC 33591 assessed as reduction in bacterial growth incubated for 18 hrs by agar dilution method; type: functional
[6] = test system: Acinetobacter baumannii; assay: Antibacterial activity against Acinetobacter baumannii ATCC 19606 assessed as reduction in bacterial growth incubated for 18 hrs by CLSI-based Mueller-Hinton broth dilution method; type: functional
[7] = test system: Staphylococcus epidermidis; assay: Antibacterial activity against Staphylococcus epidermidis ATCC 12228 assessed as reduction in bacterial growth incubated for 18 hrs by CLSI-based Mueller-Hinton broth dilution method; type: functional
[8] = test system: Bacillus subtilis; assay: Antibacterial activity against Bacillus subtilis ATCC 23857 assessed as reduction in bacterial growth incubated for 18 hrs by CLSI-based Mueller-Hinton broth dilution method; type: functional
[9] = test system: Escherichia coli; assay: Antibacterial activity against Escherichia coli ML-35 ATCC 43837 assessed as reduction in bacterial growth incubated for 18 hrs by CLSI-based Mueller-Hinton broth dilution method; type: functional
[10] = test system: Klebsiella pneumoniae; assay: Antibacterial activity against Klebsiella pneumoniae ATCC 700603 assessed as reduction in bacterial growth incubated for 18 hrs by CLSI-based Mueller-Hinton broth dilution method; type: functional
[11] = test system: Pseudomonas aeruginosa; assay: Antibacterial activity against Pseudomonas aeruginosa ATCC 27853 assessed as reduction in bacterial growth incubated for 18 hrs by CLSI-based Mueller-Hinton broth dilution method; type: functional
[12] = test system: Erythrocyte; assay: Hemolytic activity in mouse erythrocyte assessed as hemolysis incubated for 1 hr by microplate reader analysis; type: toxicity, cell-based
[13] = test system: Staphylococcus aureus; assay: Antimicrobial activity against Staphylococcus aureus ATCC 25923 assessed as reduction in microbial growth incubated for 18 hrs by CLSI-based Mueller-Hinton broth dilution method; type: functional

| SMILES | HC50 at 24 h [1] | MIC [2] | MIC [3] | MIC [4] | MIC [5] | MIC [6] | MIC [7] | MIC [8] | MIC [9] | MIC [10] | MIC [11] | HC10 [12] | MIC [13] |
| --- | --- | --- | --- | --- | --- | --- | --- | --- | --- | --- | --- | --- | --- |
| CC[C@H](C)C[C@H](NC(=O)[C@H](CCCNC(=N)N)NC(=O)[C@H](CCCCN)NC(=O)[C@H](CC(C)C)NC(=O)[C@H](CC(C)C)NC(=O)CN)C(=O)N[C@@H](CCCCN)C(=O)N[C@H](C(=O)N[C@@H](Cc1ccc2ccccc2c1)C(=O)N[C@@H](CC(C)C)C(N)=O)[C@@H](C)O (H-GLLKR[hIle]KT[2Nal]L-NH2) | 149 µM | 15.8 µM | 28.4 µM | 8.8 µM (≈ 11 µg/mL) | 28.4 µM (≈ 35.5 µg/mL) |  |  |  |  |  |  |  |  |
| CC[C@H](C)[C@H](NC(=O)[C@H](CCCNC(=N)N)NC(=O)[C@H](CCCCN)NC(=O)[C@H](CC(C)C)NC(=O)[C@H](Cc1ccc2ccccc2c1)NC(=O)CN)C(=O)N[C@@H](CCCCN)C(=O)N[C@H](C(=O)N[C@@H](CC(C)C)C(=O)N[C@@H](CC(C)C)C(N)=O)[C@@H](C)O (H-G[2Nal]LKRIKTLL-NH2) | 52.8 µM | 15.8 µM | 9.5 µM | 15.8 µM (≈ 19.6 µg/mL) | 15.8 µM (≈ 19.6 µg/mL) |  |  |  |  |  |  |  |  |
| CC[C@H](C)[C@H](NC(=O)[C@H](Cc1ccccc1)NC(=O)[C@H](CCCCN)NC(=O)[C@H](CC(C)C)NC(=O)[C@H](CC(C)C)NC(=O)CN)C(=O)N[C@@H](CCCCN)C(=O)N[C@@H](Cc1c[nH]c2ccccc12)C(=O)N[C@@H](CC(C)C)C(=O)N[C@@H](CC(C)C)C(N)=O (H-GLLKFIKWLL-NH2) | 0.6 µM | 22.1 µM | 256 µM | 0.8 µM (≈ 0.984 µg/mL) | 7.4 µM (≈ 9.1 µg/mL) |  |  |  |  |  |  |  |  |
| CC[C@H](C)[C@H](NC(=O)[C@H](CCCNC(=N)N)NC(=O)[C@H](CCCCN)NC(=O)[C@H](Cc1ccc2ccccc2c1)NC(=O)[C@H](CC(C)C)NC(=O)CN)C(=O)N[C@@H](CCCCN)C(=O)N[C@H](C(=O)N[C@@H](CC(C)C)C(=O)N[C@@H](CC(C)C)C(N)=O)[C@@H](C)O (H-GL[2Nal]KRIKTLL-NH2) | 172 µM | 28.4 µM | 9.5 µM | 9.5 µM (≈ 11.8 µg/mL) | 28.4 µM (≈ 35.1 µg/mL) |  |  |  |  |  |  |  |  |
| CC(C)C[C@H](NC(=O)[C@H](CC(C)C)NC(=O)[C@@H](NC(=O)[C@H](CCCCN)NC(=O)[C@H](CC1CCCCC1)NC(=O)[C@H](CCCNC(=N)N)NC(=O)[C@H](CCCCN)NC(=O)[C@H](CC(C)C)NC(=O)[C@H](CC(C)C)NC(=O)CN)[C@@H](C)O)C(N)=O (H-GLLKR[Cha]KTLL-NH2) | 304 µM | 28.4 µM | 15.8 µM | 6 µM (≈ 7.16 µg/mL) | 28.4 µM (≈ 33.9 µg/mL) |  |  |  |  |  |  |  |  |
| CC[C@H](C)C[C@H](NC(=O)[C@H](CCCNC(=N)N)NC(=O)[C@H](CCCCN)NC(=O)[C@H](CC(C)C)NC(=O)[C@H](CC(C)C)NC(=O)CN)C(=O)N[C@@H](CCCCN)C(=O)N[C@H](C(=O)N[C@@H](CC1CCCCC1)C(=O)N[C@@H](CC(C)C)C(N)=O)[C@@H](C)O (H-GLLKR[hIle]KT[Cha]L-NH2) | 234 µM | 28.4 µM | 28.4 µM | 28.4 µM (≈ 34.3 µg/mL) | 47.4 µM (≈ 57.2 µg/mL) |  |  |  |  |  |  |  |  |
| CC[C@H](C)C[C@H](NC(=O)[C@H](CCCNC(=N)N)NC(=O)[C@H](CCCCN)NC(=O)[C@H](CC(C)C)NC(=O)[C@H](CC(C)C)NC(=O)CN)C(=O)N[C@@H](CCCCN)C(=O)N[C@H](C(=O)N[C@@H](CC(C)C)C(=O)N[C@@H](Cc1ccc2ccccc2c1)C(N)=O)[C@@H](C)O (H-GLLKR[hIle]KTL[2Nal]-NH2) | 18 µM | 22.1 µM | 9.5 µM | 9.5 µM (≈ 11.9 µg/mL) | 28.4 µM (≈ 35.5 µg/mL) |  |  |  |  |  |  |  |  |
| CCCCC(=O)NCCCC[C@@H](NC(=O)[C@H](CC(C)C)NC(=O)[C@H](CC(C)C)NC(=O)CN)C(=O)N[C@@H](CCCNC(=N)N)C(=O)N[C@H](C(=O)N[C@H](CCCCN)C(=O)N[C@H](C(=O)N[C@@H](CC(C)C)C(=O)N[C@@H](CC(C)C)C(N)=O)[C@@H](C)O)[C@@H](C)CC |  |  |  |  |  | > 128 µM | > 128 µM | > 128 µM | > 128 µM | > 128 µM | > 128 µM | > 256 µM | > 128 µM |
| CCCCCCCCCCC(=O)NCCCC[C@@H](NC(=O)[C@H](CC(C)C)NC(=O)[C@H](CC(C)C)NC(=O)CN)C(=O)N[C@@H](CCCNC(=N)N)C(=O)N[C@H](C(=O)N[C@H](CCCCN)C(=O)N[C@H](C(=O)N[C@@H](CC(C)C)C(=O)N[C@@H](CC(C)C)C(N)=O)[C@@H](C)O)[C@@H](C)CC |  |  |  |  |  | 16 µM (≈ 21.1 µg/mL) | 2 µM (≈ 2.64 µg/mL) | 4 µM (≈ 5.29 µg/mL) | 8 µM (≈ 10.6 µg/mL) | 32 µM (≈ 42.3 µg/mL) | 8 µM (≈ 10.6 µg/mL) | 256 µM | 8 µM |
| CCCCCCC(=O)NCCCC[C@@H](NC(=O)[C@@H](NC(=O)[C@H](CCCNC(=N)N)NC(=O)[C@@H](CCCCN)NC(=O)[C@H](CC(C)C)NC(=O)[C@H](CC(C)C)NC(=O)CN)[C@@H](C)CC)C(=O)N[C@H](C(=O)N[C@@H](CC(C)C)C(=O)N[C@@H](CC(C)C)C(N)=O)[C@@H](C)O |  |  |  |  |  | 32 µM (≈ 40.5 µg/mL) | 16 µM (≈ 20.3 µg/mL) | 8 µM (≈ 10.1 µg/mL) | 32 µM (≈ 40.5 µg/mL) | 128 µM (≈ 162 µg/mL) | 32 µM (≈ 40.5 µg/mL) | 256 µM | 128 µM |
| CCCCCCCCC(=O)NCCCC[C@@H](NC(=O)[C@@H](NC(=O)[C@H](CCCNC(=N)N)NC(=O)[C@@H](CCCCN)NC(=O)[C@H](CC(C)C)NC(=O)[C@H](CC(C)C)NC(=O)CN)[C@@H](C)CC)C(=O)N[C@H](C(=O)N[C@@H](CC(C)C)C(=O)N[C@@H](CC(C)C)C(N)=O)[C@@H](C)O |  |  |  |  |  | 8 µM (≈ 10.4 µg/mL) | 4 µM (≈ 5.18 µg/mL) | 2 µM (≈ 2.59 µg/mL) | 4 µM (≈ 5.18 µg/mL) | 32 µM (≈ 41.4 µg/mL) | 16 µM (≈ 20.7 µg/mL) | 256 µM | 8 µM |
| CCCCCCC(=O)NCCCC[C@@H](NC(=O)[C@H](CC(C)C)NC(=O)[C@H](CC(C)C)NC(=O)CN)C(=O)N[C@@H](CCCNC(=N)N)C(=O)N[C@H](C(=O)N[C@H](CCCCN)C(=O)N[C@H](C(=O)N[C@@H](CC(C)C)C(=O)N[C@@H](CC(C)C)C(N)=O)[C@@H](C)O)[C@@H](C)CC |  |  |  |  |  | > 128 µM | 128 µM (≈ 162 µg/mL) | 32 µM (≈ 40.5 µg/mL) | > 128 µM | > 128 µM | 64 µM (≈ 81 µg/mL) | > 256 µM | > 128 µM |
| CCCCCCCCCCC(=O)NCCCC[C@@H](NC(=O)[C@@H](NC(=O)[C@H](CCCNC(=N)N)NC(=O)[C@@H](CCCCN)NC(=O)[C@H](CC(C)C)NC(=O)[C@H](CC(C)C)NC(=O)CN)[C@@H](C)CC)C(=O)N[C@H](C(=O)N[C@@H](CC(C)C)C(=O)N[C@@H](CC(C)C)C(N)=O)[C@@H](C)O |  |  |  |  |  | 4 µM (≈ 5.29 µg/mL) | 4 µM (≈ 5.29 µg/mL) | 2 µM (≈ 2.64 µg/mL) | 4 µM (≈ 5.29 µg/mL) | 8 µM (≈ 10.6 µg/mL) | 4 µM (≈ 5.29 µg/mL) | 128 µM | 8 µM |
| CCCCCCCCCCCCC(=O)NCCCC[C@@H](NC(=O)[C@H](CC(C)C)NC(=O)[C@H](CC(C)C)NC(=O)CN)C(=O)N[C@@H](CCCNC(=N)N)C(=O)N[C@H](C(=O)N[C@H](CCCCN)C(=O)N[C@H](C(=O)N[C@@H](CC(C)C)C(=O)N[C@@H](CC(C)C)C(N)=O)[C@@H](C)O)[C@@H](C)CC |  |  |  |  |  | 4 µM (≈ 5.4 µg/mL) | 4 µM (≈ 5.4 µg/mL) | 2 µM (≈ 2.7 µg/mL) | 4 µM (≈ 5.4 µg/mL) | 8 µM (≈ 10.8 µg/mL) | 4 µM (≈ 5.4 µg/mL) | 32 µM | 4 µM |
| CCCCCCCCCCCCCCC(=O)NCCCC[C@@H](NC(=O)[C@H](CC(C)C)NC(=O)[C@H](CC(C)C)NC(=O)CN)C(=O)N[C@@H](CCCNC(=N)N)C(=O)N[C@H](C(=O)N[C@H](CCCCN)C(=O)N[C@H](C(=O)N[C@@H](CC(C)C)C(=O)N[C@@H](CC(C)C)C(N)=O)[C@@H](C)O)[C@@H](C)CC |  |  |  |  |  | 8 µM (≈ 11 µg/mL) | 4 µM (≈ 5.51 µg/mL) | 4 µM (≈ 5.51 µg/mL) | 8 µM (≈ 11 µg/mL) | 32 µM (≈ 44.1 µg/mL) | 16 µM (≈ 22 µg/mL) | 32 µM | 8 µM |
